Data published in patent US5883079A, “Method for inhibiting H. pylori infection in mammalian tissue” (Neose Technologies, Inc., priority 1998, dated 1999).
Where “and” joins values, the source holds several entries; their conditions need not be identical. Equal values may be shown once. Entries after “also recorded” stand apart in the source; their conditions may differ.

Legend:
[1] = system: H. pylori binding to HuTu-80 cell monolayer; test: H. pylori binding inhibition to HuTu-80 cell monolayers (microtiter, urease readout); assay type: cell-based, human (HuTu-80); H. pylori; conditions: for IC50: Homo sapiens, HuTu80; for activity in inhibiting binding of H. pylori cells, in vitro: in words
Description: The cultures were maintained in Basal medium Eagle containing 10% fetal calf serum in T-75 flasks, at 37° C. and a 5% CO2 atmosphere. Cells were harvested by trypsin/EDTA release and plated on 96-well flat bottom microtiter plates. The microtiter plates were incubated for 2-3 days until the monolayers grew to confluence. Prior to binding inhibition tests, the monolayer was washed with Hanks Balanced Salt solution (HBSS) containing Ca^+2 and Mg^+2, 0.1% BSA, 50 mM HEPES, 0.01 phenol red or HBHPR.
H. pylori bacteria isolates were obtained from B. Marshall (from the University of Virginia) and grown on sheep blood agar, collected at 48 h, washed and suspended in a binding buffer of HBSS+0.1% bovine serum albumin+50 mM HEPES buffer+0.01% phenol red or HBHPR.
The same concentration of bacteria and test compound were combined for 10 minutes, then transferred onto the monolayer. Binding was allowed to occur for 20 min at room temperature under mild agitation. The unbound bacteria was washed away with 1 wash of HBHPR, then 2 washes of the same buffer without HEPES buffer (HBPR).
The presence of bound bacteria is indicated by the presence of bacterial urease which generates NH3, which raises the pH and changes the color to purple, near at OD595.
IC50 in mg/ml was determined for each compound tested. The test data is reported below in Table 1:
IC50 S were determined using the HuTu-80 cell line monolayers.

[2] = system: H. pylori binding to an erythrocyte receptor; conditions: cited from earlier work; for hemagglutination inhibition (in words): vs NeuAc(2→6)-lactose / NeuAc(2→3)-lactose
[3] = system: H. pylori; test: In vivo animal test: H. pylori colonization in gnotobiotic piglets; set-up: bacterial colonies, colony forming units/gram of gastric epithelium, Experiment A / bacterial colonies, colony forming units/gram of gastric epithelium, Experiment B / bacterial colonies, colony forming units/gram of gastric epithelium, mean ± SD: scale not given here
Description: Gnotobiotic derived piglets (delivered by cesarean section and housed in a germ-free environment) were orally treated with 100 mg of 3'sialyl lactose in 5.0 ml of water.
(§1) Six day old gnotobiotic piglets were orally treated with seven doses of 100 mg each of 3' sialyl lactose, at about 8 hour intervals. As a control, the piglets were administered water. The third administration of 3' sialyl lactose and control was accompanied with 2×10^9 live H. pylori. Two piglets were administered 3'sialyl lactose and 2 piglets were administered the control.
as §1, with “Twenty one” for “Six”, “4×10^9” for “2×10^9”, “Four” for “Two”
The piglets were evaluated by determining bacterial colonies in blood-agar as colony forming units/gram of gastric epithelium (CFU/g). Gastric epithelium homogenates were plated on agar in serial 1:10 dilutions and bacterial colonies were counted on the plates, with 20-200 colonies/plate after 5 days.

[4] = system: Helicobacter pylori; test: Effectiveness at inhibiting Helicobacter pylori when treating mammals, compared with fetuin; set-up: species or system mammals; H. pylori; conditions: vs fetuin
[5] = system: H. pylori; conditions: in words; cited from earlier work
[6] = in words; cited from earlier work
[7] = system: H. pylori; conditions: material treated with neuraminidase; cited from earlier work
[8] = system: Y-1 mouse adrenal cells; conditions: in words; cited from earlier work
[9] = system: Helicobacter pylori; conditions: in words; cited from earlier work

For `CC(=O)N[C@H]1[C@H]([C@H](O)[C@H](O)CO)O[C@@](O[C@H]2[C@@H](O)[C@@H](CO)O[C@@H](O[C@H]3[C@H](O)[C@@H](O)C(O)O[C@@H]3CO)[C@@H]2O)(C(=O)O)C[C@@H]1O` (stereo partly drawn) [3' sialyl lactose, N-acetylneuraminyl-α(2→3)-Gal β1→4 Glc], the IC50 [1] is listed as 6 mM, the “activity in inhibiting binding of H. pylori cells, in vitro” value [1] is listed as “surprisingly strongly inhibits H. pylori” and the “hemagglutination inhibition (in words)” value [2] is listed as “preferentially inhibited”. For the same molecule, the “bacterial colonies, colony forming units/gram of gastric epithelium, mean ± SD” value ([3]; Experiments A and B together) was 6.9 ± 5.9 CFU/g, the “H. pylori binding inhibition in mammals” value ([3]; in words, validated through in vivo mammalian test data) was “surprisingly effective inhibitor” and the “bacterial colonies, colony forming units/gram of gastric epithelium, Experiment A” value ([3]; six day old piglets, oral, seven doses of 100 mg, 8 hour intervals, 2×10^9 live H. pylori, individual animals) was 5.44 CFU/g and 0 CFU/g. For the same molecule, the “bacterial colonies, colony forming units/gram of gastric epithelium, Experiment B” value ([3]; twenty one day old piglets, oral, seven doses of 100 mg, 8 hour intervals, 4×10^9 live H. pylori, individual animals) was 4.46 CFU/g and 25.5 CFU/g and 3.71 CFU/g and 2.48 CFU/g and the “times more effective at inhibiting Helicobacter pylori than fetuin” value [4] was “more than 6.41 times”.

With `CC(=O)N[C@H]1[C@H]([C@H](O)[C@H](O)CO)O[C@@](OC[C@H]2O[C@@H](O[C@H]3[C@H](O)[C@@H](O)C(O)O[C@@H]3CO)[C@H](O)[C@@H](O)[C@H]2O)(C(=O)O)C[C@@H]1O` (stereo partly drawn) [6' sialyl lactose, N-acetylneuraminyl-α(2→6)-Gal β1→4 Glc, reference compound] the IC50 [1] was > 10 mM.

In the case of `OC[C@H]1O[C@@H](O[C@H]2[C@H](O)[C@@H](O)C(O)O[C@@H]2CO)[C@H](O)[C@@H](O)[C@H]1O` (stereo partly drawn) [lactose, reference compound], the IC50 [1] is reported as > 10 mM.

In the case of “#3: fraction # 3 corresponds with pure fetuin”, the “IC50, Expt C” value ([1]; HuTu-80, fetuin fraction, Expt C) is reported as 1300 µg/mL.

In the case of “Colloidal bismuth subcitrate [Colloidal bismuth subcitrate (CBS)]”, the “eradication of H. pylori” value [5] is given as “ability to eradicate H. pylori”, the “relapse rates after cessation of therapy” value [5] is given as “lower relapse rates” and the “effectiveness as a histamine H2 antagonist” value [6] is given as “effective as a histamine H2 antagonist”.

For “N-acetylneuraminyllactose [reference compound]”, the “decrease in MFI upon neuraminidase treatment” value (shortened to “decrease”) [7] is given as 16.8%.

For asialofetuin: asialofetuin, the “decrease” value [7] is given as 8.6%.

For “fetuin: Sialoprotein which contains the NeuAc(2→3)Gal isomer of NeuAc-lactose”, the “decrease” value [7] is listed as 29.8%, the “activity in inhibiting binding of H. pylori cells, in vitro” value [1] is listed as “minimal activity” and the “concentration needed to produce 100% HAI” value ([2]; hemagglutination inhibition) is listed as 0.500 mg/mL. For the same molecule, the “times as effective as bovine NeuAc-lactose” value ([2]; hemagglutination inhibition) was 0.156 times, the “times as effective as α2-Macroglobulin” value ([2]; hemagglutination inhibition) was “about 2 times” and the “hemagglutination inhibition (in words)” value [2] was “also inhibited H. pylori binding, but at higher concentrations”. For the same molecule, the “adherence to Y-1 cells” value [8] was “blocked”.

In the case of gangliotetraosylceramide, the “recognition by H. pylori” value [9] is listed as “specifically recognizes”.

In the case of gangliotriaosylceramide, the “recognition by H. pylori” value [9] is listed as “specifically recognizes”.

In the case of phosphatidylethanolamine, the “recognition by H. pylori” value [9] is given as “receptor; also recorded: specifically recognizes”.

In the case of “α2 -Macroglobulin: Sialoprotein which contains the NeuAc(2→3)Gal isomer of NeuAc-lactose”, the “concentration needed to produce 100% HAI” value ([2]; hemagglutination inhibition) is listed as 1.000 mg/mL and the “hemagglutination inhibition (in words)” value [2] is listed as “also inhibited H. pylori binding, but at higher concentrations”.

B1: Glycophorin A: Sialoprotein which contains the NeuAc(2→3)Gal isomer of NeuAc-lactose (protein, UniProt P02724 20-150, looked up)
Glycophorin-A: LSTTEVAMHTSTSSSVTKSYISSQTNDTHKRDTYAATPRAHEVSEISVRTVYPPEEETGERVQLAHHFSEPEITLIIFGVMAGVIGTILLISYGIRRLIKKSPSDVKPLPSPDTDVPLSSVEIENPETSDQ
In the case of B1, the “concentration needed to produce 100% HAI” value ([2]; hemagglutination inhibition) is listed as 0.250 mg/mL and the “hemagglutination inhibition (in words)” value [2] is listed as “also inhibited H. pylori binding, but at higher concentrations”.
